# According to patent US5422339A, “Peptides having insulin autoantibody but not insulin receptor binding capacity” (Joslin Diabetes Center, Inc., priority 1994, dated 1995):
# Entries after “also recorded” stand apart in the source; their conditions may differ. No end group written: not given here.
# Tested on: human insulin autoantibodies
# Experiment: Competition with 125I-human insulin for binding to human insulin autoantibodies (competitive binding radioassay)
# Settings: for affinity / recognition by human insulin autoantibodies: Type I diabetes-associated autoantibodies, relative to human insulin
# Method: Insulin autoantibodies isolated from sera of well-characterized first-degree relatives of patients with Type I diabetes mellitus were analyzed in comparative studies by competition with a series of insulins from different species and with insulin analogues. Insulin binding activity was detected using a competitive binding radioassay and expressed in nU of insulin precipitated per ml of sera (1 nU/ml=7.18 fmole/L).
Substance,affinity / recognition by human insulin autoantibodies,competition with 125I-human insulin for binding to human insulin autoantibodies (autoantibodies isolated from sera of first-degree relatives of Type I diabetes patients),potency in binding to insulin autoantibodies relative to human insulin
"Guinea pig insulin: guinea pig insulin; differs from human insulin at 18 positions (Insulin B chain FVSRHLCGSNLVETLYSVCQDDGFFYIPKD; Insulin A chain GIVDQCCTGTCTRHQLQSYCN; ends and bridges not checked; cysteine pairing not given here; UniProt P01329 25-54; P01329 90-110, looked up)",essentially not recognized; also recorded: reduced,failed to compete,–
human proinsulin,–,–,at least as potent as human insulin
ovine insulins: ovine insulin; differs from human by three amino acids,high-affinity recognition; also recorded: minimal reduction,–,–
